Assay results: patent US20080213175A1, “Click chemistry-derived cyclic peptidomimetics as integrin markers” (priority 2006, published 2008)

How the values were obtained:
[1] = tested on: tumor xenograft of either U87MG human glioblastoma or A431 human squamous cell carcinoma; details: mouse, in vivo
Protocol: PET Studies: In vivo microPET imaging of a tumor-bearing mouse is performed on an anesthetized mouse bearing tumor xenograft of either U87MG human glioblastoma or A431 human squamous cell carcinoma after administration of cyclic peptidomimetic. […] See e.g. FIG. 3-6.

[2] = tested on: integrin-positive M21 melanoma xenograft; details: integrin-positive M21 melanoma xenograft model; cited from earlier work
[3] = cited from earlier work
integrin = integrin (Homo sapiens, UniProt P05106+P06756); details: cited from earlier work
[4] = tested on: A431 human squamous cell carcinoma model; details: tumor cells integrin negative; cited from earlier work
[5] = target: T1, Integrin αvβ3 expressing U87MG cells (Homo sapiens, UniProt P05106+P06756); assay: Cell-based integrin binding competition assay; details: competition with 2 μM fluorescence labeled compound 18, 2 hrs
T1 construct: Integrin αvβ3 expressing U87MG cells; endogenous in cells; host or cells: U87MG
Protocol: Integrin αvβ3 expressing U87MG cells were incubated with a series of concentration of RGD compounds (0-32 μM) in the presence of 2 μM of green fluorescence labeled compound 18 for 2 hrs. After incubation, cells were washed three times to eliminate unbound RGD compounds. Fluorescence readings (RLU) were then taken (excitation at 491 nm, emission at 518 nm, cutoff 515 nm).
The results are consistent with that of surface plasmon resonance assay.

Integrin αvβ3 = Integrin αvβ3 (Homo sapiens, UniProt P05106+P06756); assay: Surface plasmon resonance (SPR) 'inverse' integrin αvβ3 assay; format: binding
Protocol: Compound 17 was immobilized onto a CM5 chip (Supplier: Biacore. CM5 is a SPR chip with a carboxymethylated dextran covalently attached to a gold surface) via amine coupling. Integrin αvβ3 samples at 25 nM concentration, premixed with a wide range of concentrations of RGD test compound (0˜1000 nm), were flowed through the CM5 chip at 14° C. The interactions between the flowing integrin αvβ3 sample and the surface of the chip were recorded by Biacore sensorgram signals. Flow cell #1 served as blank control and the flow cell #2 were coated with compound 17. After subtraction the blank signal of flow cell #1 from the signal of flow cell #2, the resulting sensorgram signals from each cycle were converted into percentage values. Then the Kd and IC50 values for each RGD compounds were calculated.

[6] = SPR, compared with RGDfK, FIG. 1

N=C(N)NCCC[C@@H]1NC(=O)[C@H](CCCCNC(=O)CCN(CCC(=O)NCCCC[C@H]2C(=O)N[C@@H](CCCNC(=N)N)C(=O)NCC(=O)N[C@@H](CC(=O)O)C(=O)N[C@@H](Cc3ccccc3)c3cn2nn3)C(=O)CCOCCOCCOCCOCCNC(=O)Cn2cc(CCCF)nn2)n2cc(nn2)[C@H](Cc2ccccc2)NC(=O)[C@H](CC(=O)O)NC(=O)CNC1=O [Compound 3]
renal clearance and liver uptake [1]: favorable renal clearance and very little liver uptake
tumor uptake and retention [1]: good tumor uptake and retention
wash-out rate from muscle and other healthy tissues [1]: fast wash-out rate

CC([18F])C(=O)NC[C@H]1OC(C(=O)NCCCC[C@@H]2NC(=O)C(Cc3ccccc3)NC(=O)[C@H](CC(=O)O)NC(=O)CNC(=O)[C@H](CCCNC(=N)N)NC2=O)[C@@H](O)C(O)C1O (stereo partly drawn) [[^18F]galacto-RGD]
tumor uptake [2]: integrin αvβ3-specific tumor uptake
activity accumulation in organs ([3]; both preclinical models and human studies): prominent activity accumulation in the liver, kidneys, spleen, and intestines
safety of administration ([3]; healthy volunteers and a limited number of cancer patients): could be safely administered to patients
pharmacokinetic behavior ([3]; human, in vivo): unfavorable pharmacokinetic behavior
tumor standard uptake values ([3]; human, in vivo): modest tumor standard uptake values
delineation of integrin-positive lesions ([3]; initial clinical trials): able to delineate certain lesions that were integrin-positive with reasonable contrast
integrin binding affinity (integrin): relatively low integrin binding affinity
visualization of integrin αvβ3 expression from tumor vasculature [4]: sensitive enough for visualization of integrin αvβ3 expression

N=C(N)NCCC[C@@H]1NC(=O)[C@H](CCCCN)n2cc(nn2)[C@H](Cc2ccccc2)NC(=O)[C@H](CC(=O)O)NC(=O)CNC1=O [Compound 1]
potency [5]: very similar in potency
binding affinity to integrin αvβ3 (Integrin αvβ3; 'inverse' SPR, compound 17 immobilized on CM5 chip, integrin αvβ3 25 nM, 14° C.): surprisingly high binding affinity
IC50 (Integrin αvβ3; [6]): very close to those of RGDfK
Kd (Integrin αvβ3; [6]): very close to those of RGDfK

N=C(N)NCCC[C@@H]1NC(=O)[C@H](CCCCNC(=O)CCOCCOCCOCCOCCNC(=O)Cn2cc(CCCF)nn2)n2cc(nn2)[C@H](Cc2ccccc2)NC(=O)[C@H](CC(=O)O)NC(=O)CNC1=O [Compound 2]
renal clearance and liver uptake [1]: favorable renal clearance and very little liver uptake
tumor uptake and retention [1]: good tumor uptake and retention
wash-out rate from muscle and other healthy tissues [1]: fast wash-out rate
